Assay results published in publication PMC6445226, “Kinetic study on the inhibition of xanthine oxidase by acylated derivatives of flavonoids synthesised enzymatically” (Journal of Enzyme Inhibition and Medicinal Chemistry, 2017).
Like-named read-outs stand apart in the source and are kept apart here.

Columns and labels:
[1] = molecular target: T1, xanthine oxidase from bovine milk (Bos taurus, UniProt P80457); assay: Inhibition of xanthine oxidase (XO) activity, uric acid formed from xanthine, absorbance at 290 nm; format: biochemical; details: for inhibition at 45 µM: read-out: Xanthine oxidase inhibition (XOI %); for IC50: value of x when y = 50 from straight line equation of XOI % vs concentration
T1 construct: xanthine oxidase from bovine milk; purchased Sigma-Aldrich Chemical Co., St. Louis, MO; host or cells: bovine milk (natural source)
Experimental: Inhibition of XO activity was assessed by measuring the uric acid formed from the xanthine substrate. Solutions of xanthine in various concentrations in a 0.1 M, pH 7.4 phosphate buffer were incubated together with 100 μl of ethanol and the same volume of samples of the solutions with different concentrations (45 and 90 μM in a 0.1 M, pH 7.4 phosphate buffer). The samples were pre-incubated at 37 °C for 10 min. The XO solution (0.3 ml, 0.1 U/ml) was added to the reaction mixture and the flasks were incubated at 37 °C for 20 min. The enzymatic reaction was interrupted by adding 25 μl of 3.2% HCl. The absorption of the samples was measured using an ELISA reader Epoch, BioTek (Winooski, VT) at 290 nm. The uric acid production was calculated from the differential absorbance with a blank solution without xanthine oxidase. The control was a solution containing xanthine and XO.
Vmax (maximum reaction rate) and Km (Michaelis–Menten constant, that is the substrate concentration at 1/2 the maximum reaction rate) were calculated and the type of inhibition kinetics was identified using the Origin 8.6 program and the rectangular hyperbola model. […] Reaction rate (expressed as uric acid concentration in μmol/min) was obtained from the uric acid standard curve (y = 0.024x − 0.1242, R^2 = 0.9786).

[2] = Partition coefficient determination in octanol/water (k); format: physicochemical; details: octan-1-ol/water, 50 μM sample, UHPLC-MS; SD <0.01
Experimental: The partition coefficients of the untreated flavonoids in octanol/water (k) were analysed to determine their degrees of lipophilicity. In test tubes, 2.0 ml of a solution of the sample with a concentration of 50 μM were added to 2.0 ml of octanol saturated with water. The mixture was shaken for 1 min and then centrifuged for 15 min at 3000 rpm. […] The partition coefficient was obtained using the equation: k=Co/Ca×r; where Co = test compound concentration in octanol, Ca = test compound concentration in aqueous solution, r = ratio of the volumes of the oily and the aqueous phases.

XO [3] = system: XO; set-up: method as in PMID 12231379; details: XO inhibition; cited from earlier work
XO [4] = system: XO; set-up: method as in earlier work; details: XO inhibition; cited from earlier work
[5] = inhibitor at 45 μM, 250 μM of xanthine substrate, derivatives after 12 h of enzymatic acylation

T1 sequence (P80457 whole entry): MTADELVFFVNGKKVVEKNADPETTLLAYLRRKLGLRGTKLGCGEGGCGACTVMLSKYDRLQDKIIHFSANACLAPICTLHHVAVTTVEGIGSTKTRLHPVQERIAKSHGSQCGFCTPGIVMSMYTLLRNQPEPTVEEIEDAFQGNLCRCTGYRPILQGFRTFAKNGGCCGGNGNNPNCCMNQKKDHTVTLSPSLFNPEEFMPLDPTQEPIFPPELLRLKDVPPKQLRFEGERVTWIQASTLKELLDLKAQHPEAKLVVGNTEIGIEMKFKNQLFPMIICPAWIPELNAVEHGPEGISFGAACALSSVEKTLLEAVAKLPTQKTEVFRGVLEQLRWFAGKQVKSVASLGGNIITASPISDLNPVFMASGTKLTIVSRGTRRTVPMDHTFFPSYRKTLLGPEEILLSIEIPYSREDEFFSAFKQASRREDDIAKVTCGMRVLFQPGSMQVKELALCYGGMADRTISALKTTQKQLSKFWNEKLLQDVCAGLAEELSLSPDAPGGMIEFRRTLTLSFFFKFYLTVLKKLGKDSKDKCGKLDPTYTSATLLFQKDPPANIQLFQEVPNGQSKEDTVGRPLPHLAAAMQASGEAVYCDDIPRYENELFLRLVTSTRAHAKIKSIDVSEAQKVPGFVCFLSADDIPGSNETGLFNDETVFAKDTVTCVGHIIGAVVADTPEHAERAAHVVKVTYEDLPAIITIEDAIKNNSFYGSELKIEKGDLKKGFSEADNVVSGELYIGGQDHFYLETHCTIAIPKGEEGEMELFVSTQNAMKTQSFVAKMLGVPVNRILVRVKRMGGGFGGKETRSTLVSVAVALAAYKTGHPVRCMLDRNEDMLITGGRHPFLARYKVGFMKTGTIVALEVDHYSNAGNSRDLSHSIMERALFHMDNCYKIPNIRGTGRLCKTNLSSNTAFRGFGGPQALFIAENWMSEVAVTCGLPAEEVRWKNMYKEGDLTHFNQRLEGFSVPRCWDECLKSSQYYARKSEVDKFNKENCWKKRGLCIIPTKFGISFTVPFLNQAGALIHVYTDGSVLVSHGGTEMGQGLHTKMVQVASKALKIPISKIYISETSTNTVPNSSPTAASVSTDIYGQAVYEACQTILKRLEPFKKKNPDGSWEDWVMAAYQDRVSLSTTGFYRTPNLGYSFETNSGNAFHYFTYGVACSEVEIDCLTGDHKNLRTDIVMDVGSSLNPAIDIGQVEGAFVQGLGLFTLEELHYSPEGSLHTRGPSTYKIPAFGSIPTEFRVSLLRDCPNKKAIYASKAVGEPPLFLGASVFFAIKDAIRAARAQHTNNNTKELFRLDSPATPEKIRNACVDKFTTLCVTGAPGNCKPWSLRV

Row | Compound | Xanthine oxidase inhibition (XOI %) [1, 5] | IC50 [1] | Partition coefficient (k) [2] | also measured
1 | Oc1ncnc2[nH]ncc12 [Allopurinol, allopurinol] |  |  |  | inhibition at 45 µM [1]: 89.7%
2 | COc1ccc([C@@H]2CC(=O)c3c(O)cc(O[C@@H]4O[C@H](CO[C@@H]5O[C@@H](C)[C@H](O)[C@@H](O)[C@H]5O)[C@@H](O)[C@H](O)[C@H]4O)cc3O2)cc1O [Hesperidin, hesperidin] | 8.24 ± 2.10% | 333 µM | 0.42 | 
3 | C[C@@H]1O[C@@H](O[C@H]2[C@H](Oc3cc(O)c4c(c3)O[C@H](c3ccc(O)cc3)CC4=O)O[C@H](CO)[C@@H](O)[C@@H]2O)[C@H](O)[C@H](O)[C@H]1O [Naringin, naringin] |  | 206 µM | 0.37 | inhibition at 45 µM [1, 5]: 14.8 ± 4.8%
4 | O=c1c(O)c(-c2ccc(O)c(O)c2)oc2cc(O)cc(O)c12 [Quercetin, quercetin] |  |  | 1.46 | 
5 | C[C@@H]1O[C@@H](OC[C@H]2O[C@@H](Oc3c(-c4ccc(O)c(O)c4)oc4cc(O)cc(O)c4c3=O)[C@H](O)[C@@H](O)[C@@H]2O)[C@H](O)[C@H](O)[C@H]1O [Rutin, rutin] |  |  | 0.48 | 
6 | O=c1c(O)c(-c2ccc(O)cc2)oc2cc(O)cc(O)c12 [kaempferol] |  |  |  | IC50 (XO [3]): 2.5 µM
7 | O=c1c(O)c(-c2ccc(O)cc2O)oc2cc(O)cc(O)c12 [morin] |  |  |  | IC50 (XO [3]): 40 µM
8 | Hesperidin decanoate | 16.42 ± 3.21% | 199 µM | 0.83 | 
9 | Naringin decanoate | 25.61 ± 2.85% | 118 µM | 0.86 | 
10 | Naringin octanoate | 28.80 ± 5.76% | 110 µM |  | 
11 | isoquercitrin butyrate |  |  |  | IC50 (XO [4]): 144 µM
12 | isoquercitrin oleate |  |  |  | IC50 (XO [4]): 27 µM
13 | isoquercitrin stearate |  |  |  | IC50 (XO [4]): 61 µM
